Results: US4161527A, “Antibiotic compositions” (priority 1976, dated 1979)
Counter-ions that a name gives are not always drawn.

Experiments:
[1] = Dissolution time on addition of 3 ml. of distilled water; assay type: physicochemical; conditions: shaken vigorously
Method: To each of the Samples was added 3 ml. of distilled water and the times of dissolution were measured. […] Provided that, in dissolution, Samples A and B were allowed to stand, while Sample C was shaken vigorously.

[2] = Color of the Samples 3 hours after dissolution; assay type: physicochemical; conditions: 3 ml. of distilled water
[3] = system: Proteus vulgaris IFO 3988; experiment: Antibacterial spectrum (agar dilution), M.I.C.; assay type: cell-based; conditions: IFO3988
Escherichia coli T-7 = experiment: Antibacterial spectrum (agar dilution), M.I.C.; assay type: cell-based; conditions: T7
From the text: (§1) The antibacterial potency (M.I.C.) and toxicity of TTC
(§2) (1) Antibacterial spectrum (agar dilution)

Escherichia coli 0-111 = experiment: Antibacterial spectrum (agar dilution), M.I.C.; assay type: cell-based; conditions: 0111
From the text: as §1, §2

[4] = system: local tissue at the sites of injection; experiment: Local reactions at the sites of intramuscular injection (general statement); assay type: in vivo; conditions: intramuscularly injected
[5] = system: Staphylococcus aureus FDA 209 P; experiment: Antibacterial spectrum (agar dilution), M.I.C.; assay type: cell-based; conditions: FDA209
[6] = Storage stability (general statement); assay type: physicochemical
[7] = system: Gram-positive and Gram-negative bacteria; assay type: cell-based
[8] = system: Escherichia coli NIHJ JC-2; experiment: Antibacterial spectrum (agar dilution), M.I.C.; assay type: cell-based; conditions: NIHJJC2
Krebsiella pneumoniae DT = experiment: Antibacterial spectrum (agar dilution), M.I.C.; assay type: cell-based
[9] = system: Proteus morganii IFO 3848; experiment: Antibacterial spectrum (agar dilution), M.I.C.; assay type: cell-based; conditions: Morganella morganii, IFO3848
[10] = system: Staphylococcus aureus 1840; experiment: Antibacterial spectrum (agar dilution), M.I.C.; assay type: cell-based
[11] = Dissolution in a solvent such as distilled water (general statement); assay type: physicochemical

| SMILES | Dissolution time [1] [s] | Color 3 hours after dissolution [2] | MIC [3] [µg/mL] | MIC (Escherichia coli T-7) [µg/mL] | MIC (Escherichia coli 0-111) [µg/mL] | local reactions at the sites of injection [4] | MIC [5] [µg/mL] | stability in storage [6] | antibacterial activity [7] | MIC [8] [µg/mL] | MIC (Krebsiella pneumoniae DT) [µg/mL] | MIC [9] [µg/mL] | MIC [10] [µg/mL] | dissolution [11] |
| --- | --- | --- | --- | --- | --- | --- | --- | --- | --- | --- | --- | --- | --- | --- |
| CN(C)CCn1nnnc1SCC1=C(C(=O)O)N2C(=O)[C@@H](NC(=O)Cc3csc(=N)[nH]3)[C@H]2SC1 [TTC hydrate, 7β-[2-(2-imino-4-thiazolin-4-yl)acetamido]-3-{1-[2-(N,N-dimethylamino)ethyl]-1-H-tetrazol-5-yl}thiomethyl-3-cephem-4-carboxylic acid dihydrochloride hydrate] | 180 | Reddish yellow |  |  |  |  |  |  |  |  |  |  |  |  |
| CN(C)CCn1nnnc1SCC1=C(C(=O)O)N2C(=O)[C@@H](NC(=O)Cc3csc(N)n3)[C@H]2SC1.Cl.Cl [TTC, 7β-[2-(2-imino-4-thiazolin-4-yl)acetamido]-3-{1-[2-(N,N-dimethylamino)ethyl]-1H-tetrazol-5-yl}thiomethyl-3-cephem-4-carboxylic acid dihydrochloride] |  |  | 1.56 | 1.56 | 0.05 | necrosis of muscle cells, discoloration or brown degeneration of the local tissue, hyperemia and other local reactions at the sites of injection | 0.39 | stable in storage | strong antibacterial activity against Gram-positive and Gram-negative bacteria | 0.2 | 0.1 | 0.39 | 0.78 | rather slow to be dissolved |
